Measurements as given in the NIST ThermoML archive (doi:10.1016/j.tca.2011.07.005).
Several values for one entry are separate records, joined by “and”; a condition that tells them apart may be missing. Identical values can stand only once. Numbers after ± are expanded uncertainties.

Experiments:
[1] = xn = mol fraction of the nth substance listed; conditions: 101 kPa, Liquid; for speed of sound: Linear variable-path acoustic interferometer; for mass density: Pycnometric method
[2] = 101 kPa, Liquid; for speed of sound: Linear variable-path acoustic interferometer; for mass density: Pycnometric method

Q: For CC(C)OC(C)C [diisopropyl ether] + Nc1cccc(Cl)c1, which speed of sound ([1]; 303.15 K, x1 = 1) is on record?
A: 976 ± 2 m/s

Q: And the mass density ([1]; 303.15 K, x1 = 1)?
A: 712.9 ± 0.3 kg/m3

Q: What about the speed of sound ([1]; 313.15 K, x1 = 1) of the same compound?
A: 932 ± 2 m/s

Q: And the mass density ([1]; 313.15 K, x1 = 1)?
A: 702.9 ± 0.3 kg/m3

Q: What about the speed of sound ([1]; 323.15 K, x1 = 1) of the same compound?
A: 889 ± 2 m/s

Q: What about the mass density ([1]; 323.15 K, x1 = 1) of the same compound?
A: 691.9 ± 0.3 kg/m3

Q: For C1CCOC1 [tetrahydrofuran] + Nc1ccccc1Cl, which speed of sound ([1]; 303.15 K, x1 = 1) is on record?
A: 1254 ± 2 m/s

Q: What about the mass density ([1]; 303.15 K, x1 = 1) of the same compound?
A: 876.9 ± 0.3 kg/m3

Q: What about the speed of sound ([1]; 313.15 K, x1 = 1) of the same compound?
A: 1207 ± 2 m/s

Q: And the mass density ([1]; 313.15 K, x1 = 1)?
A: 865.7 ± 0.3 kg/m3

Q: And the speed of sound ([1]; 323.15 K, x1 = 1)?
A: 1165 ± 2 m/s

Q: What about the mass density ([1]; 323.15 K, x1 = 1) of the same compound?
A: 854.8 ± 0.3 kg/m3

Q: For Nc1cccc(Cl)c1 [3-chlorobenzenamine] + CC(C)OC(C)C, which speed of sound ([1]; 303.15 K, x2 = 0) is on record?
A: 1517 ± 3 m/s

Q: And the speed of sound ([1]; 303.15 K, x2 = 0.0619)?
A: 1484 ± 3 m/s

Q: And the speed of sound ([1]; 303.15 K, x2 = 0.1302)?
A: 1448 ± 3 m/s

Q: What about the speed of sound ([1]; 303.15 K, x2 = 0.2031) of the same compound?
A: 1410 ± 3 m/s

Q: What about the speed of sound ([1]; 303.15 K, x2 = 0.2827) of the same compound?
A: 1368 ± 3 m/s

Q: And the speed of sound ([1]; 303.15 K, x2 = 0.3716)?
A: 1321 ± 3 m/s

Q: What about the speed of sound ([1]; 303.15 K, x2 = 0.4676) of the same compound?
A: 1270 ± 2 m/s

Q: And the speed of sound ([1]; 303.15 K, x2 = 0.5803)?
A: 1209 ± 2 m/s

Q: And the speed of sound ([1]; 303.15 K, x2 = 0.7235)?
A: 1132 ± 2 m/s

Q: And the speed of sound ([1]; 303.15 K, x2 = 0.8428)?
A: 1066 ± 2 m/s

Q: What about the mass density ([1]; 303.15 K, x2 = 0) of the same compound?
A: 1205.3 ± 0.4 kg/m3

Q: What about the mass density ([1]; 303.15 K, x2 = 0.0619) of the same compound?
A: 1171.2 ± 0.4 kg/m3

Q: And the mass density ([1]; 303.15 K, x2 = 0.1302)?
A: 1134.1 ± 0.4 kg/m3

Q: And the mass density ([1]; 303.15 K, x2 = 0.2031)?
A: 1095.7 ± 0.4 kg/m3

Q: And the mass density ([1]; 303.15 K, x2 = 0.2827)?
A: 1055.1 ± 0.4 kg/m3

Q: What about the mass density ([1]; 303.15 K, x2 = 0.3716) of the same compound?
A: 1011.3 ± 0.4 kg/m3

Q: What about the mass density ([1]; 303.15 K, x2 = 0.4676) of the same compound?
A: 965 ± 0.4 kg/m3

Q: And the mass density ([1]; 303.15 K, x2 = 0.5803)?
A: 911.2 ± 0.4 kg/m3

Q: What about the mass density ([1]; 303.15 K, x2 = 0.7235) of the same compound?
A: 842.6 ± 0.3 kg/m3

Q: What about the mass density ([1]; 303.15 K, x2 = 0.8428) of the same compound?
A: 785.4 ± 0.3 kg/m3

Q: And the speed of sound ([1]; 313.15 K, x2 = 0)?
A: 1484 ± 3 m/s

Q: What about the speed of sound ([1]; 313.15 K, x2 = 0.0619) of the same compound?
A: 1451 ± 3 m/s

Q: And the speed of sound ([1]; 313.15 K, x2 = 0.1302)?
A: 1414 ± 3 m/s

Q: And the speed of sound ([1]; 313.15 K, x2 = 0.2031)?
A: 1374 ± 3 m/s

Q: What about the speed of sound ([1]; 313.15 K, x2 = 0.2827) of the same compound?
A: 1331 ± 3 m/s

Q: And the speed of sound ([1]; 313.15 K, x2 = 0.3716)?
A: 1283 ± 2 m/s

Q: And the speed of sound ([1]; 313.15 K, x2 = 0.4676)?
A: 1230 ± 2 m/s

Q: And the speed of sound ([1]; 313.15 K, x2 = 0.5803)?
A: 1168 ± 2 m/s

Q: What about the speed of sound ([1]; 313.15 K, x2 = 0.7235) of the same compound?
A: 1089 ± 2 m/s

Q: And the speed of sound ([1]; 313.15 K, x2 = 0.8428)?
A: 1023 ± 2 m/s

Q: And the mass density ([1]; 313.15 K, x2 = 0)?
A: 1196.1 ± 0.4 kg/m3

Q: What about the mass density ([1]; 313.15 K, x2 = 0.0619) of the same compound?
A: 1163.2 ± 0.4 kg/m3

Q: And the mass density ([1]; 313.15 K, x2 = 0.1302)?
A: 1126.7 ± 0.4 kg/m3

Q: What about the mass density ([1]; 313.15 K, x2 = 0.2031) of the same compound?
A: 1088.2 ± 0.4 kg/m3

Q: And the mass density ([1]; 313.15 K, x2 = 0.2827)?
A: 1047.4 ± 0.4 kg/m3

Q: And the mass density ([1]; 313.15 K, x2 = 0.3716)?
A: 1003.4 ± 0.4 kg/m3

Q: What about the mass density ([1]; 313.15 K, x2 = 0.4676) of the same compound?
A: 957.2 ± 0.4 kg/m3

Q: And the mass density ([1]; 313.15 K, x2 = 0.5803)?
A: 903.7 ± 0.4 kg/m3

Q: And the mass density ([1]; 313.15 K, x2 = 0.7235)?
A: 835.3 ± 0.3 kg/m3

Q: What about the mass density ([1]; 313.15 K, x2 = 0.8428) of the same compound?
A: 777.7 ± 0.3 kg/m3

Q: What about the speed of sound ([1]; 323.15 K, x2 = 0) of the same compound?
A: 1452 ± 3 m/s

Q: And the speed of sound ([1]; 323.15 K, x2 = 0.0619)?
A: 1418 ± 3 m/s

Q: And the speed of sound ([1]; 323.15 K, x2 = 0.1302)?
A: 1380 ± 3 m/s

Q: What about the speed of sound ([1]; 323.15 K, x2 = 0.2031) of the same compound?
A: 1340 ± 3 m/s

Q: And the speed of sound ([1]; 323.15 K, x2 = 0.2827)?
A: 1295 ± 2 m/s

Q: What about the speed of sound ([1]; 323.15 K, x2 = 0.3716) of the same compound?
A: 1246 ± 2 m/s

Q: And the speed of sound ([1]; 323.15 K, x2 = 0.4676)?
A: 1192 ± 2 m/s

Q: And the speed of sound ([1]; 323.15 K, x2 = 0.5803)?
A: 1129 ± 2 m/s

Q: What about the speed of sound ([1]; 323.15 K, x2 = 0.7235) of the same compound?
A: 1048 ± 2 m/s

Q: What about the speed of sound ([1]; 323.15 K, x2 = 0.8428) of the same compound?
A: 981 ± 2 m/s

Q: And the mass density ([1]; 323.15 K, x2 = 0)?
A: 1186.6 ± 0.4 kg/m3

Q: And the mass density ([1]; 323.15 K, x2 = 0.0619)?
A: 1154.7 ± 0.4 kg/m3

Q: What about the mass density ([1]; 323.15 K, x2 = 0.1302) of the same compound?
A: 1118.2 ± 0.4 kg/m3

Q: And the mass density ([1]; 323.15 K, x2 = 0.2031)?
A: 1079.3 ± 0.4 kg/m3

Q: And the mass density ([1]; 323.15 K, x2 = 0.2827)?
A: 1038 ± 0.4 kg/m3

Q: What about the mass density ([1]; 323.15 K, x2 = 0.3716) of the same compound?
A: 993.6 ± 0.4 kg/m3

Q: What about the mass density ([1]; 323.15 K, x2 = 0.4676) of the same compound?
A: 947.6 ± 0.4 kg/m3

Q: What about the mass density ([1]; 323.15 K, x2 = 0.5803) of the same compound?
A: 894.5 ± 0.4 kg/m3

Q: And the mass density ([1]; 323.15 K, x2 = 0.7235)?
A: 826.7 ± 0.4 kg/m3

Q: And the mass density ([1]; 323.15 K, x2 = 0.8428)?
A: 768.7 ± 0.3 kg/m3

Q: Which speed of sound ([2]; 303.15 K) does the source give for Nc1cccc(Cl)c1 [3-chlorobenzenamine] here?
A: 1517 ± 3 m/s

Q: What about the mass density ([2]; 303.15 K) of the same compound?
A: 1205.3 ± 0.4 kg/m3

Q: What about the speed of sound ([2]; 313.15 K) of the same compound?
A: 1484 ± 3 m/s and 1486 ± 3 m/s

Q: And the mass density ([2]; 313.15 K)?
A: 1196.1 ± 0.4 kg/m3 and 1196 ± 0.4 kg/m3

Q: What about the speed of sound ([2]; 323.15 K) of the same compound?
A: 1452 ± 3 m/s

Q: What about the mass density ([2]; 323.15 K) of the same compound?
A: 1186.6 ± 0.4 kg/m3

Q: Which speed of sound ([1]; 303.15 K, x1 = 1) does the source give for C1CCOC1 [tetrahydrofuran] + Nc1cccc(Cl)c1 here?
A: 1254 ± 2 m/s

Q: And the mass density ([1]; 303.15 K, x1 = 1)?
A: 876.9 ± 0.3 kg/m3

Q: What about the speed of sound ([1]; 313.15 K, x1 = 1) of the same compound?
A: 1207 ± 2 m/s

Q: And the mass density ([1]; 313.15 K, x1 = 1)?
A: 865.7 ± 0.3 kg/m3

Q: And the speed of sound ([1]; 323.15 K, x1 = 1)?
A: 1165 ± 2 m/s

Q: And the mass density ([1]; 323.15 K, x1 = 1)?
A: 854.8 ± 0.3 kg/m3
